Patent EP0367514A2, “Human leukocyte elastase inhibitors and methods for producing and using same” (UNIVERSITY OF KENTUCKY RESEARCH FOUNDATION, priority 1988, dated 1990)

Target: T1, enzyme elastase, e.g., human leukocyte elastase (HLE) and porcine pancreatic elastase (PPE) (Homo sapiens, UniProt P08246)
T1 sequence (P08246 30-247): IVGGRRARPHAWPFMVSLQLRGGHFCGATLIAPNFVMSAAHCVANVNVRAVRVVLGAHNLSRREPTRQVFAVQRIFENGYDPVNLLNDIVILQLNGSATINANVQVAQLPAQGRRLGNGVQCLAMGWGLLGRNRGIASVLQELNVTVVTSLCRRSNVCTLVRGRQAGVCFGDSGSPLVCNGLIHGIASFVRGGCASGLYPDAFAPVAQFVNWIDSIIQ
Assay: Elastase enzyme inhibitory studies (Ki of peptidyl carbamates)
Assay type: biochemical
Method: These studies are conducted to show the activities of some of the compounds of this invention as inhibitors of various forms of the enzyme elastase.
All enzyme assays are performed spectrophotometrically at 25 C using CARY 219 or 2200 Vanan Spectrometers. The activity of PPE is measured using 5-Boc-L-alinlne p-mtrophenyl ester (Boc-Ala-ONP), as the substrate and monitoring the absorbance at 347.5 nm (p-nitrophenol). The activity of HLE is measured using methoxy succinyl-L-analyl-L-alanyl L-prolyl-L-valine pnitroanilide (MeO-Suc-Ala-Ala-Pro-Val-NA), as the substrate and following the absorbance at 410 nm (pnitroaniline). Active inhibitors are tested against other serine dependent proteolytic enzymes such as tryps in and chymotryps in using their respective substrates. N-benzoyl-L-arginine ethyl ester, N-benzoyl-L-tyrosine ethyl ester and monitonng the absorbance at 253 and 256 respectively. […]

Row | SMILES | Ki (inhibitor dissociation constant) [nM]
1 | COC(=O)CCC(=O)NC(CCCNC(=O)OCc1ccccc1)C(=O)NC(C)C(=O)N1CCCC1C(=O)CN(C(=O)Sc1nnnn1-c1ccccc1)C(C)C (stereo not drawn) [PC6, S-(1-phenyl-5-tetrazoyl)-N-[methoxysuccinyl-(N -carbobenzoyl)ornithylalanyl(prolylmethyl)-N-isopropylthio carbamate] | 3
2 | COC(=O)CCC(=O)NC(C)C(=O)NC(CCCCNC(=O)OCc1ccccc1)C(=O)N1CCCC1C(=O)CN(C(=O)Sc1nnnn1-c1ccccc1)C(C)C (stereo not drawn) [PC5, S-(1-phenyl-5-tetrazoyl)-N-[methoxysuccinyl-alanyl-(N∈-Carbobenzoxyl)lysylprolylmethyl]-N-isopropyl-thio carbamate] | 20
